Results published in ChEMBL document CHEMBL1201862, “PubChem BioAssay data set” (2004).
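Protocol summary: plate cells (96-well), add compound at 5 concentrations, incubate 48 h, interpolate endpoints linearly. GI50 is the concentration that inhibits growth by half.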 Active and inactive are the calls of the source. Rule as the data show it: active = GI50 up to about 1.1 µM and inactive = higher.

Columns and labels:
Experiment in all cases: inhibition of tumour cell growth, NCI panel, 48 h
NCI-H226 = test system: NCI-H226
RXF 393 = test system: RXF 393
SN12C = test system: SN12C
M14 = test system: M14
DU-145 = test system: DU-145
CCRF-CEM = test system: CCRF-CEM
OVCAR-5 = test system: OVCAR-5
KM12 = test system: KM12
SF-539 = test system: SF-539
SNB-19 = test system: SNB-19
ACHN = test system: ACHN
EKVX = test system: EKVX
SK-MEL-28 = test system: SK-MEL-28
MDA-MB-231 = test system: MDA-MB-231
SK-OV-3 = test system: SK-OV-3
K562 = test system: K562
T47D = test system: T47D
COLO 205 = test system: COLO 205
Hs-578T = test system: Hs-578T

Measured: GI50

CCOc1cc(NC(C)=O)ccc1C(=O)NN1C(=O)C(Oc2ccccc2)C1c1ccc(O)c(OC)c1 (centres undefined)
inactive: NCI-H226 34.2 µM | RXF 393 24.3 µM | SN12C 28 µM | M14 52.1 µM | DU-145 78 µM | CCRF-CEM 22.5 µM | OVCAR-5 > 100 µM | KM12 39.1 µM | SF-539 28.1 µM | SNB-19 > 100 µM | ACHN 93.5 µM | EKVX 35.3 µM | SK-MEL-28 79.4 µM | MDA-MB-231 34 µM | SK-OV-3 > 100 µM | K562 31.3 µM | T47D 14.4 µM | COLO 205 30.3 µM

Cc1nc(N)sc1C(=O)/C=C/c1ccc([N+](=O)[O-])cc1
inactive: RXF 393 > 100 µM | SN12C > 100 µM | CCRF-CEM > 100 µM | OVCAR-5 > 100 µM | KM12 > 100 µM | SF-539 > 100 µM | SNB-19 > 100 µM | EKVX > 100 µM | SK-MEL-28 > 100 µM | SK-OV-3 > 100 µM | K562 > 100 µM | COLO 205 > 100 µM

CCOC(=O)c1c(-c2ccc(Cl)cc2)c(C#N)c(=S)n(C2OC(COC(C)=O)C(OC(C)=O)C(OC(C)=O)C2OC(C)=O)c1C (centres undefined)
inactive: NCI-H226 > 100 µM | RXF 393 > 100 µM | SN12C > 100 µM | M14 > 100 µM | DU-145 > 100 µM | CCRF-CEM > 100 µM | OVCAR-5 > 100 µM | KM12 > 100 µM | SF-539 > 100 µM | SNB-19 > 100 µM | ACHN > 100 µM | EKVX > 100 µM | SK-MEL-28 > 100 µM | MDA-MB-231 > 100 µM | SK-OV-3 > 100 µM | K562 > 100 µM | T47D > 100 µM | COLO 205 > 100 µM

Cc1ccc(Nc2sc(C)cc2C#N)c([N+](=O)[O-])c1
inactive: NCI-H226 > 100 µM | RXF 393 53.3 µM | SN12C > 100 µM | M14 > 100 µM | DU-145 > 100 µM | CCRF-CEM 99.8 µM | OVCAR-5 > 100 µM | KM12 93.5 µM | SF-539 > 100 µM | SNB-19 > 100 µM | ACHN > 100 µM | EKVX > 100 µM | SK-MEL-28 > 100 µM | MDA-MB-231 > 100 µM | SK-OV-3 > 100 µM | K562 > 100 µM | T47D > 100 µM | COLO 205 > 100 µM

CCOC(=O)C1C(=O)CC(O)(OCC)C(C(=O)OCC)C1c1ccc(OC)cc1 (centres undefined)
inactive: NCI-H226 > 100 µM | RXF 393 > 100 µM | SN12C > 100 µM | DU-145 > 100 µM | CCRF-CEM > 100 µM | OVCAR-5 > 100 µM | KM12 > 100 µM | SNB-19 > 100 µM | ACHN > 100 µM | EKVX > 100 µM | SK-MEL-28 > 100 µM | MDA-MB-231 > 100 µM | K562 > 100 µM | T47D > 100 µM | COLO 205 > 100 µM

CN(C)CCNC1=CC(=O)c2nc3ccccc3c3ccnc1c23
inactive: NCI-H226 2.04 µM | SN12C 6.49 µM | M14 7.6 µM | DU-145 8.2 µM | CCRF-CEM 3.88 µM | OVCAR-5 5.74 µM | Hs-578T 4.95 µM | KM12 3.34 µM | SF-539 3.98 µM | SNB-19 5.01 µM | ACHN 3.05 µM | EKVX 2.94 µM | SK-MEL-28 11.4 µM | MDA-MB-231 3.63 µM | SK-OV-3 10.1 µM | K562 1.19 µM | COLO 205 2.75 µM

COc1nc(SC)nc2c1C(O)n1c(nc3ccccc31)S2 (centres undefined)
inactive: SN12C 24.3 µM | M14 60.4 µM | DU-145 53.7 µM | CCRF-CEM 2.32 µM | OVCAR-5 82 µM | Hs-578T 16 µM | KM12 25.4 µM | SNB-19 25.2 µM | ACHN 18.4 µM | EKVX 36.1 µM | SK-MEL-28 9.16 µM | MDA-MB-231 14.4 µM | SK-OV-3 22.8 µM | K562 13.7 µM

Nc1ccc2c(c1)Cc1ccccc1-2
inactive: NCI-H226 > 100 µM | RXF 393 48.1 µM | SN12C > 100 µM | M14 > 100 µM | CCRF-CEM 23.6 µM | OVCAR-5 > 100 µM | Hs-578T > 100 µM | KM12 41.5 µM | SF-539 73.6 µM | SNB-19 > 100 µM | ACHN 95.1 µM | EKVX 37.1 µM | SK-MEL-28 > 100 µM | MDA-MB-231 > 100 µM | SK-OV-3 > 100 µM | K562 84.1 µM | COLO 205 > 100 µM
